Patent publication US6858638B2, “Substituted indazoles, compositions containing them, method of production and use” (Aventis Pharma S.A., priority 2002, dated 2005)

Key:
[1] = molecular target: T1, human KDR enzyme (Homo sapiens, UniProt P35968); experiment: KDR substrate (PLCγ) phosphorylation, scintillation assay; type: biochemical; settings: 10 μM; read-out: KDR % inhib at 10 μM
T1 construct: The cytoplasmic domain of the human KDR enzyme; GST; made in house; host or cells: SF21 insect cells (baculovirus)
How it was run: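 GST-fused human KDR cytoplasmic domain from SF21 cells (about 60% pure, 100 ng) phosphorylated 2 μg of GST-PLCγ SH2-SH3 fragment. The trigger solution held γ33P-ATP with 2 μM cold ATP, in MOPS buffer pH 7.2 with Mg2+, Mn2+, vanadate and NaF. Reactions ran 1 h at 37 °C, were stopped with EDTA and counted by scintillation; results are % inhibition versus the no-compound control.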

[2] = molecular target: T2, human Tie2 (Homo sapiens, UniProt Q02763); experiment: Tie2 phosphorylation of PLC, FlashPlate radioactivity assay; type: biochemical; settings: read-out: TIE2 % inhib at 10 μM
T2 construct: amino acids of the intracellular domain 776-1124; made in house; host or cells: baculovirus expression system (vector pFastBacGT)
Experimental: The coding sequence of human Tie2 corresponding to the amino acids of the intracellular domain 776-1124 was generated by PCR using the cDNA isolated from human placenta as model. This sequence was introduced into a baculovirus expression vector pFastBacGT in the form of a GST fusion protein.
The inhibitory effect of the molecules is determined in an assay of phosphorylation of PLC by Tie2 in the presence of GST-Tie2 purified to approximately 80% homogeneity. The substrate is composed of the SH2-SH3 fragments of PLC exprressed in the form of a GST fusion protein.
The kinase activity of Tie2 is measured in a 20 mM MOPS buffer, pH 7.2, containing 10 mM MgCl2, 10 mM MnCl2, 1 mM DTT and 10 mM of glycerophosphate. A reaction mixture composed of 70 μl of kinase buffer containing 100 ng of GST-Tie2 enzyme per well is placed in a FlashPlate 96-well plate kept on ice. 10 μl of the test molecule diluted in DMSO at a maximum concentration of 10% are then added. For a given concentration, each measurement is carried out in quadruplicate. The reaction is initiated by adding 20 μl of solution containing 2 μg of GST-PLC, 2 μM of cold ATP and 1 μCi of ^33P[ATP]. After incubation for 1 hour at 37° C., the reaction is stopped by adding 1 volume (100 μl) of 200 mM EDTA. After removing the incubation buffer, the wells are washed three times with 300 μl of PBS. The radioactivity is measured on a Wallac MicroBeta 1450.
The inhibition of the Tie2 activity is calculated and expressed as percentage inhibition compared to the control activity determined in the absence of compound.

[3] = system: c-Src protein; experiment: Src kinase phosphorylation of biotinylated cdc2 substrate, fluorescence (DELFIA); type: biochemical, human
How it was run: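 Recombinant human c-Src (SH3, SH2 and catalytic domains; baculovirus) phosphorylates biotinylated cdc2 substrate in 50 mM Tris, 10 mM MgCl2 with 10 μM ATP, 60 min at 30° C. Product captured on streptavidin and detected by Europium-anti-phosphotyrosine fluorescence (DELFIA). Reported as % inhibition of no-compound control.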

T2 sequence (Q02763 776-1124): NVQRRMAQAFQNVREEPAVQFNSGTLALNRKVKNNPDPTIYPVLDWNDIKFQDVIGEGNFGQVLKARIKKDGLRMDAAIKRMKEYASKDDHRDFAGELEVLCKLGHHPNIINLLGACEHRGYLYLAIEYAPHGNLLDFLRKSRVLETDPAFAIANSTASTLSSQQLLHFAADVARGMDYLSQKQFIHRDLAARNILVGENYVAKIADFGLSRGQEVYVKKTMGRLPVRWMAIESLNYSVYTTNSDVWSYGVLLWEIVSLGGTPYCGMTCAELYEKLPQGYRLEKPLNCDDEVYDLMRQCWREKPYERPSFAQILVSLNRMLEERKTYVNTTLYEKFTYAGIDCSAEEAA
T1 sequence (P35968 786-1356 limits assumed): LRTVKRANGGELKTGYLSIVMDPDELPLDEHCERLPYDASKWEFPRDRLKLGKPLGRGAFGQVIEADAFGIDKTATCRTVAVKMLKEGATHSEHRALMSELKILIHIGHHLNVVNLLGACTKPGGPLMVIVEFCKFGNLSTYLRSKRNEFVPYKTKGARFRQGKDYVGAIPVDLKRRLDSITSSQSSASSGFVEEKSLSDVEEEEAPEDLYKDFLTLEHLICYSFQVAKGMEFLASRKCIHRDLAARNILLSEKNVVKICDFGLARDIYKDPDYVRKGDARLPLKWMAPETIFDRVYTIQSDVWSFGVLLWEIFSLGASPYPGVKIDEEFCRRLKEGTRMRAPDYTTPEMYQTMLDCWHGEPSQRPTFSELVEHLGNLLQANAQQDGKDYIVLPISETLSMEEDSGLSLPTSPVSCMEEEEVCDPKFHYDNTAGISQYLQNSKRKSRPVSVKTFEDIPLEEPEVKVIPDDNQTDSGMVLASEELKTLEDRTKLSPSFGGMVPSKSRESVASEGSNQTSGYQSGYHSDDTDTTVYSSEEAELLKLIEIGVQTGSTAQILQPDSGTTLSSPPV

SMILES | inhibition at 10 µM [1] [%] | inhibition at 10 µM [2] [%] | SRC % inhib at 10 μM [3] [%] | melting point [°C]
CS(=O)(=O)c1ccccc1S(=O)(=O)Nc1ccc2[nH]nc(Cl)c2c1 [Example 1, N-(3-Chloro-1H-indazol-5-yl)-2-methylsulfonylbenzenesulfonamide] | 7 | 18 |  | 
O=S(=O)(Nc1ccc2[nH]nc(Cl)c2c1)c1cccc(F)c1 [Example 3, N-(3-Chloro-1H-indazol-5-yl)-3-fluorobenzenesulfonamide] | 22 | 15 |  | 
Cc1n[nH]c2ccc(NS(=O)(=O)c3cccc(F)c3)cc12 [Example 9, 3-Fluoro-N-(3-methyl-1H-indazol-5-yl)benzenesulfonamide] | 18 | 29 |  | 120
Cc1n[nH]c2ccc(NS(=O)(=O)c3ccccc3S(C)(=O)=O)cc12 [Example 10, 2-Methylsulfonyl-N-(3-methyl-1H-indazol-5-yl)benzenesulfonamide] | 20 | 33 |  | 
CS(=O)(=O)c1ccccc1S(=O)(=O)Nc1ccc2[nH]ncc2c1 [Example 13, 2-Methylsulfonyl-N-(1H-indazol-5-yl)benzenesulfonamide] | 0 | 22 |  | 245
CS(=O)(=O)c1ccccc1S(=O)(=O)Nc1ccc2[nH]nc(-c3ccc(Cl)cc3)c2c1 [Example 30, N-[3-(4-Chlorophenyl)-1H-indazol-5-yl]-2-methylsulfonylbenzenesulfonamide] | 85 |  | 72 | 242
CS(=O)(=O)c1ccccc1S(=O)(=O)Nc1ccc2[nH]nc(-c3ccc[nH]3)c2c1 [Example 60, 2-Methylsulfonyl-N-[3-(1H-pyrrol-2-yl)-1H-indazol-5-yl]benzenesulfonamide] | 64 |  | 98 | 255
CS(=O)(=O)c1ccccc1S(=O)(=O)Nc1ccc2[nH]nc(-c3cccc(N)c3)c2c1 [Example 62, N-[3-(3-Aminophenyl)-1H-indazol-5-yl]-2-methylsulfonylbenzenesulfonamide] | 74 |  | 95 | 220
CS(=O)(=O)c1ccccc1S(=O)(=O)Nc1ccc2[nH]nc(-c3cc4ccccc4s3)c2c1 [Example 65, N-(3-Benzo[b]thiophen-2-yl-1H-indazol-5-yl)-2-methylsulfonylbenzenesulfonamide] | 73 |  | 96 | 270
COc1ccc(OC)c(S(=O)(=O)Nc2ccc3[nH]nc(-c4ccccc4)c3c2)c1 [Example 131, 2,5-Dimethoxy-N-(3-phenyl-1H-indazol-5-yl)-benzenesulfonamide] | 95 |  | 36 | 
O=S(=O)(Nc1ccc2[nH]nc(-c3ccccc3)c2c1)c1ccc(Cl)s1 [Example 135, 5-Chloro-N-(3-phenyl-1H-indazol-5-yl)thiophene-2-sulfonamide] | 91 |  | 54 | 

More lines, now with the values ahead:

inhibition at 10 µM [1] [%] | inhibition at 10 µM [2] [%] | SRC % inhib at 10 μM [3] [%] | melting point [°C] | SMILES
85 | 74 | 55 | 200 | O=S(=O)(Nc1ccc2[nH]nc(-c3ccccc3)c2c1)c1cccc(F)c1 [Example 6, 3-Fluoro-N-(3-phenyl-1H-indazol-5-yl)benzenesulfonamide]
70 | 86 | 89 | 223 | CS(=O)(=O)c1ccccc1S(=O)(=O)Nc1ccc2[nH]nc(-c3ccccc3)c2c1 [Example 7, 2-Methylsulfonyl-N-(3-phenyl-1H-indazol-5-yl)benzenesulfonamide]
81 | 56 |  | 216 | O=S(=O)(Nc1ccc2[nH]nc(-c3ccccc3)c2c1)c1ccc(Cl)c(Cl)c1 [Example 8, 3,4-Dichloro-N-(3-phenyl-1H-indazol-5-yl)benzenesulfonamide]
88 |  | 23 |  | O=[N+]([O-])c1ccccc1S(=O)(=O)Nc1ccc2[nH]nc(-c3ccccc3)c2c1 [Example 113, 2-Nitro-N-(3-phenyl-1H-indazol-5-yl)benzenesulfonamide]
93 |  | 39 |  | O=S(=O)(Nc1ccc2[nH]nc(-c3ccccc3)c2c1)c1ccc(F)cc1 [Example 117, 4-Fluoro-N-(3-phenyl-1H-indazol-5-yl)-benzenesulfonamide]
96 |  | 18 |  | Cc1ccccc1S(=O)(=O)Nc1ccc2[nH]nc(-c3ccccc3)c2c1 [Example 132, 2-Methyl-N-(3-phenyl-1H-indazol-5-yl)-benzenesulfonamide]
96 |  | 24 |  | O=C(O)c1cccc(S(=O)(=O)Nc2ccc3[nH]nc(-c4ccccc4)c3c2)c1 [Example 133, 3-(3-Phenyl-1H-indazol-5-ylsulfamoyl)benzoic acid]
90 |  | 44 |  | O=S(=O)(Nc1ccc2[nH]nc(-c3ccccc3)c2c1)c1ccccc1F [Example 134, 2-Fluoro-N-(3-phenyl-1H-indazol-5-yl)-benzenesulfonamide]
92 |  | 39 |  | Cc1cccc(S(=O)(=O)Nc2ccc3[nH]nc(-c4ccccc4)c3c2)c1 [Example 138, 3-Methyl-N-(3-phenyl-1H-indazol-5-yl)-benzenesulfonamide]
93 |  | 43 |  | O=S(=O)(Nc1ccc2[nH]nc(-c3ccccc3)c2c1)c1ccc(F)c(F)c1 [Example 152, 3,4-Difluoro-N-(3-phenyl-1H-indazol-5-yl)-benzenesulfonamide]
96 |  | 44 |  | N#Cc1cccc(S(=O)(=O)Nc2ccc3[nH]nc(-c4ccccc4)c3c2)c1 [Example 154, 3-Cyano-N-(3-phenyl-1H-indazol-5-yl)-benzenesulfonamide]
94 |  | 57 |  | COc1cccc(S(=O)(=O)Nc2ccc3[nH]nc(-c4ccccc4)c3c2)c1 [Example 156, 3-Methoxy-N-(3-phenyl-1H-indazol-5-yl)-benzenesulfonamide]
96 |  | 75 |  | O=S(=O)(Nc1ccc2[nH]nc(-c3ccccc3)c2c1)c1cc(F)cc(F)c1 [Example 158, 3,5-Difluoro-N-(3-phenyl-1H-indazol-5-yl)-benzenesulfonamide]
